Laboratory results taken from patent US7939639B2, “Functional role of adrenomedullin (AM) and the gene related product (PAMP) in human pathology and physiology” (The United States of America as represented by the …, priority 1995, dated 2011).
Entries after “also recorded” stand apart in the source; their conditions may differ. Read-outs that look alike come from different tables or passages of the source. Ends that are not written are not given here.

Experiments:
AM receptors = assay: 125I-AM receptor binding, MCF-7; set-up: species or system human; conditions: MCF-7 as representative cancer line
Procedure: j. Receptor Binding: Receptor binding analysis were performed as previously described (Moody, T. W., et al., Proc. Natl. Acad. Sci. U.S.A. 90:4345-4349 (1993)). Briefly, cells (5×10^4) were placed in 24-well plates coated with fibronectin (20 μg). When a monolayer is formed, the cells were washed 4 times in TIS buffer followed by incubation with receptor binding medium (TIS plus 1% BSA and 1 mg/ml bacitracin). […] After washing the cells 4 times in receptor binding buffer at 4° C., they were dissolved in 0.2 N NaOH and counted on a gamma counter.

Isoelectric point = format: physicochemical
rat mast cells = conditions: compared with magainin-2 / AM
AM receptor = assay: cAMP assay (RIA), MCF-7; format: cell-based, human; conditions: MCF-7
Procedure: k. cAMP Assays: Cyclic AMP was assayed by RIA using a kit obtained from New England Nuclear (Boston, Mass.). […] The supernatants were tested for cAMP using the RIA kit following the manufacturer's instructions.

C. albicans = assay: Micro-/macrodilutional assay, C. albicans; format: cell-based, Candida albicans
Procedure: (§1) Inhibition of growth of E. coli was assessed in a microdilutional timed kill assay. (See FIG. 22) Bacteria and Candida albicans were grown overnight on trypticase soy agar (TSA) and Sobouraud dextrose agar (SDA) plates, respectively, were suspended into RPMI-1640 medium (Bio-Whittaker) and adjusted to a final concentration of 8×10^3 cfu/ml in […] in plastic microdilution trays. […] Plates were incubated at 37° C. with gentle agitation over 24 hours. At 6 hr and 24 hr time points, 10 to […] aliquots from each well were quantitatively cultured by serial 100-fold dilutions onto TSA and SDA plates.
(§2) Data were compiled from six experiments. Macrodilution assays were performed in 12×75 mm borosilicate glass tubes. Organisms were grown and harvested, as described in Roilides, E., et al., J Infect Dis. 163:579 (1991), and adjusted to a final inoculum concentration of 8×10^3 cfu/ml in 400 μl. […] Tubes were incubated at 37° C. with gentle agitation over 24 hours. At 6 and 24 hour time points, 100 μl aliquots from each tube were quantitatively cultured by serial 100-fold dilutions onto TSA and SDA plates.

E. coli [1] = assay: Microdilutional timed kill assay, E. coli; format: cell-based, Escherichia coli; conditions: for growth inhibitory activity against E. coli, comparative: microdilution, 6 hours, FIG. 22
Procedure: (§3) Inhibition of growth of E. coli was assessed in a microdilutional timed kill assay. (See FIG. 22) Bacteria and Candida albicans were grown overnight on trypticase soy agar (TSA) and Sobouraud dextrose agar (SDA) plates, respectively, were suspended into RPMI-1640 medium (Bio-Whittaker) and adjusted to a final concentration of 8×10^3 cfu/ml in […] in plastic microdilution trays. AM-related peptides, magainins, and albumin were added in equimolar concentrations ranging from 8 μM to 300 μM. Plates were incubated at 37° C. with gentle agitation over 24 hours. At 6 hr and 24 hr time points, 10 to […] aliquots from each well were quantitatively cultured by serial 100-fold dilutions onto TSA and SDA plates.

E. coli [2] = assay: Macrodilution assay, E. coli; format: cell-based, Escherichia coli; conditions: for antimicrobial activity, macrodilution, 6 hours: 6 hours incubation
Procedure: as §2

P. aeruginosa = assay: Micro-/macrodilution timed kill assay, P. aeruginosa; format: cell-based, Pseudomonas aeruginosa; conditions: 24 hours exposure compared with 6 hours incubation
Procedure: as §1, §2

S. aureus = assay: Micro-/macrodilutional assays, S. aureus; format: cell-based, Staphylococcus aureus; conditions: microdilutional or macrodilutional assays
Procedure: as §1, §2

[3] = test system: E. coli, P. aeruginosa, C. albicans, S. aureus; assay: Antimicrobial dilution assays against bacterial and fungal pathogens; format: cell-based; conditions: microdilutional assay
Procedure: In order to assess the antimicrobial activity of AM and its gene related peptides, both microdilution and macrodilution assays were performed against Escherichia coli (E. coli), Staphylococcus aureus (S. aureus), Pseudomonas aeruginosa (P. aeruginosa) and Candida albicans (C. albicans). A germination assay was also performed in order to further assess anti-candidal activity (Ghannoum, M. A. and Radwan, S. S., Candida Adherence to Epithelial Cells. CRC Press; Boca Raton, Fla. 1990 pp. 72-104).
as §3
The antimicrobial activity of AM and PAMP was determined in a macrodilution assay after 6 hours of incubation of E. coli. […] Data were compiled from six experiments. Macrodilution assays were performed in 12×75 mm borosilicate glass tubes. Organisms were grown and harvested, as described in Roilides, E., et al., J Infect Dis. 163:579 (1991), and adjusted to a final inoculum concentration of 8×10^3 cfu/ml in 400 μl. AM-related peptides, magainins, and albumin were added in equimolar concentrations ranging from 8 μM to 300 μM. Tubes were incubated at 37° C. with gentle agitation over 24 hours. At 6 and 24 hour time points, 100 μl aliquots from each tube were quantitatively cultured by serial 100-fold dilutions onto TSA and SDA plates.

NCI-H1264 = assay: 125I-AM binding to NCI-H1264 cells; set-up: species or system human; conditions: 0.2 nM per 5×10^5 cells; NCI-H1264 positive control
Source text: (§4) A similar mechanism has been described for amylin (R. A. Pittner et al., J. Cell. Biochem. 55S, 19 (1994)).

RINm cells = assay: 125I-AM binding to RINm cells; conditions: 0.2 nM per 5×10^5 cells
Source text: as §4

ARLDVASEFRKKWNKWALSR-NH2 [PAMP-20, ARLDVASEFRKKWNKWALSR-NH2]
competition for 125I-AM binding (AM receptors): not competitively blocked | isoelectric point (Isoelectric point): 10.1 | isoelectric point (Isoelectric point; listed as PAMP): 11.1 | relative potency in inducing histamine release (rat mast cells): twenty times more potent | effect on cAMP (AM receptor): no effect | antimicrobial effect against C. albicans (C. albicans): 79.7%±2.4 | activity against C. albicans (C. albicans; after 6 hours of incubation): activity | activity against E. coli (E. coli [1]; after 6 hours of incubation): activity | growth inhibitory activity against E. coli, comparative (E. coli [1]): higher growth inhibitory activity than albumin | antimicrobial activity, macrodilution, 6 hours (E. coli [2]; E. coli): greater activity | antimicrobial activity against P. aeruginosa, 24 hours versus 6 hours (P. aeruginosa): greater antimicrobial activity | growth suppressive activity against S. aureus (S. aureus): ineffective; also recorded: no apparent growth suppressive activity

TVQKLAHQIYQFTDKDKDNVAPRSKISPQGY-NH2 [PO72]
competition for 125I-AM binding (AM receptors): not competitively blocked | effect on cAMP (AM receptor): no effect | activity against these pathogens [3]: little or no activity

Y-Y-W-N-K-W-A-L-S-R-NH2 (YYWNKWALSR-NH2) [PO70, ID; NO]
activity against these pathogens [3]: little or no activity

^125I-AM: iodinated AM ligand (Phoenix Pharmaceuticals)
binding of 125I-AM (NCI-H1264): 2265 cpm | binding of 125I-AM (RINm cells): 25 cpm

Magainin [reference compound]
potency against C. albicans, comparative (C. albicans): more potent than AM and PAMP | growth inhibitory activity against E. coli, comparative (E. coli [1]): greater inhibitory activity | antimicrobial activity, macrodilution, 6 hours (E. coli [2]; E. coli): moderate activity | antimicrobial activity, macrodilution, 24 hours (E. coli [2]; E. coli, 24 hours incubation): significantly greater in antimicrobial activity than either AM or PAMP; also recorded: more potent than either AM | optical clarity of bacterial suspension (E. coli [2]; macrodilution): optically clear suspension of bacteria

Y-G-G-H-Q-I-Y-Q-F-T-D-K-D-NH2 (YGGHQIYQFTDKD-NH2) [PO71, ID; NO]
activity against these pathogens [3]: little or no activity
